One block for each molecule: values may come before it.
What was measured:
[1] = pH upon addition of test substance to 0.1 M HCl solution (pH 1.2), pH meter; assay type: physicochemical
Protocol: The solution pH was determined using an MP-103 pH-meter (MRC, Israel) equipped with ELC-10-00 electrode (MRC, Israel) or with a thin electrode HI1083 (HANNA instruments Inc.), shortly after dissolution and up to 26 hours later in order to ensure that the pH remained stable. The highest pH value obtained during the experimental time period was recorded in order to compare the acid-neutralizing capacity of each substance.
SNAC and the basic polymers sodium alginate, sodium carboxymethylcellulose in non-crosslinked (Na-CMC) and crosslinked (croscarmellose sodium, CCS) forms, and sodium starch glycolate (SSG) were dissolved in various volumes of 0.1 M HCl solution (pH 1.2) at concentrations of 1, 2, 4, 10, 20, 50, 100 and 150 mg/ml, and the solution pH was determined using an MP-103 pH-meter (MRC, Israel) equipped with ELC-10-00 electrode (MRC, Israel), as described in the Materials and Methods section hereinabove.
In order to obtain a beneficial rise in pH with a reduced loss of the active form of the absorption enhancer, the effect of various concentrations of different polymers containing carboxylate groups (sodium alginate, sodium starch glycolate, sodium carboxymethylcellulose, and croscarmellose sodium) on pH upon addition to a 0.1 M HCl solution (pH 1.2) was also evaluated. FIG. 3A presents pH values determined using an MP-103 pH-meter (MRC, Israel) equipped with ELC-10-00 electrode (MRC, Israel) and FIG. 3B presents pH values determined using an MP-103 pH-meter (MRC, Israel) equipped with a thin electrode HI1083 (HANNA instruments Inc.).

pepsin = test: Effect of pH on proteolysis of hPTH(1-34) by pepsin; assay type: in vitro ADME; details: 37° C., 3 minutes, media pH 2, 4, 5, 6, 7
Protocol: The effect of pH on peptide proteolysis by pepsin was determined by incubating 13.5 µg/ml human parathyroid hormone (1-34) (hPTH(1-34)) with 150 µg/ml pepsin, at various pH values, and determining the percentage of hPTH(1-34) which remained. The amount of hPTH(1-34) remaining upon addition to 150 µg/ml pepsin at 37° C. was determined in media with different pH values, followed by immediate (10 second) vortex and centrifugation for 3 minutes at 4° C., 4000 RCF. The following media were used: simulated gastric fluid (pH 2), prepared from 0.01 M HCl and NaCl; phthalate buffer (pH 4 or 5); and phosphate buffer (pH 6 or 7).

[2] = Teduglutide plasma concentration after oral mini-tablets with SNAC and SSG in rats; assay type: in vivo, male Sprague-Dawley (SD) rats; details: mini-tablets: 0.7 mg teduglutide (2.34 mg/Kg), 15 mg SNAC, 5.33 mg SSG; male SD rats, n=7
Protocol: A formulation was prepared with 0.7 mg teduglutide (2.34 mg/Kg), 15 mg SNAC, 0.2 mg stearate and 5.33 mg SSG. […] Afterwards, mini-tablets were prepared from the mixes using a 2 mm punch and die set at 1 ton/cm^2.
The study was conducted in 7 male Sprague-Dawley (SD) rats weighing about 299 grams (290-320 grams). Animals were deprived of food 12-15 hours prior to administration. Water supply was removed one hour before administration and returned one hour post-administration. The mini-tablets were administered by a flexible intragastric gavage with a tip adapted for solid dosage forms administration, without the aid of water.

- pH 5 minutes after dissolution ([1]; 10 mg/ml SNAC added to HCl solution (pH 1.2)): about 1.5
- pH 5 minutes after dissolution ([1]; 20 mg/ml SNAC added to HCl solution (pH 1.2)): 6.5
- pH 5 minutes after dissolution ([1]; 100 mg/ml SNAC added to HCl solution (pH 1.2)): about 7.5
Compound: O=C(O)CCCCCCCNC(=O)c1ccccc1O [SNAC, sodium 8-N-(2-hydroxybenzoyl)aminocaprylate]

Compound: CC[C@H](C)[C@H](NC(=O)[C@H](CCC(=O)O)NC(=O)[C@H](CO)NC(=O)[C@@H](NC(=O)[C@@H](N)CO)C(C)C)C(=O)N[C@@H](CCC(N)=O)C(=O)N[C@@H](CC(C)C)C(=O)N[C@@H](CCSC)C(=O)N[C@@H](Cc1cnc[nH]1)C(=O)N[C@@H](CC(N)=O)C(=O)N[C@@H](CC(C)C)C(=O)NCC(=O)N[C@@H](CCCCN)C(=O)N[C@@H](Cc1cnc[nH]1)C(=O)N[C@@H](CC(C)C)C(=O)N[C@@H](CC(N)=O)C(=O)N[C@@H](CO)C(=O)N[C@@H](CCSC)C(=O)N[C@@H](CCC(=O)O)C(=O)N[C@@H](CCCN=C(N)N)C(=O)N[C@H](C(=O)N[C@@H](CCC(=O)O)C(=O)N[C@@H](Cc1c[nH]c2ccccc12)C(=O)N[C@@H](CC(C)C)C(=O)N[C@@H](CCCN=C(N)N)C(=O)N[C@@H](CCCCN)C(=O)N[C@@H](CCCCN)C(=O)N[C@@H](CC(C)C)C(=O)N[C@@H](CCC(N)=O)C(=O)N[C@@H](CC(=O)O)C(=O)N[C@H](C(=O)N[C@@H](Cc1cnc[nH]1)C(=O)N[C@@H](CC(N)=O)C(=O)N[C@@H](Cc1ccccc1)C(=O)O)C(C)C)C(C)C [hPTH(1-34)]
- proteolysis of hPTH(1-34) by pepsin as a function of pH (pepsin): inhibited when the pH increased to about pH 6 or higher

Compound: CC[C@H](C)[C@H](NC(=O)[C@H](Cc1ccccc1)NC(=O)[C@H](CC(=O)O)NC(=O)[C@H](CCCNC(=N)N)NC(=O)[C@H](C)NC(=O)[C@H](C)NC(=O)[C@H](CC(C)C)NC(=O)[C@H](CC(N)=O)NC(=O)[C@H](CC(=O)O)NC(=O)[C@H](CC(C)C)NC(=O)[C@@H](NC(=O)[C@@H](NC(=O)[C@H](CC(N)=O)NC(=O)[C@H](CCSC)NC(=O)[C@H](CCC(=O)O)NC(=O)[C@H](CC(=O)O)NC(=O)[C@H](CO)NC(=O)[C@H](Cc1ccccc1)NC(=O)[C@H](CO)NC(=O)CNC(=O)[C@H](CC(=O)O)NC(=O)CNC(=O)[C@@H](N)Cc1c[nH]cn1)[C@@H](C)O)[C@@H](C)CC)C(=O)N[C@@H](CC(N)=O)C(=O)N[C@@H](Cc1c[nH]c2ccccc12)C(=O)N[C@@H](CC(C)C)C(=O)N[C@H](C(=O)N[C@@H](CCC(N)=O)C(=O)N[C@H](C(=O)N[C@@H](CCCCN)C(=O)N[C@H](C(=O)N[C@H](C(=O)N[C@@H](CC(=O)O)C(=O)O)[C@@H](C)O)[C@@H](C)CC)[C@@H](C)O)[C@@H](C)CC [teduglutide]
- teduglutide plasma concentrations as a function of time after oral administration [2]: enable oral delivery of teduglutide
